Measurements from US8652823B2, “Strain for butanol production with increased membrane unsaturated trans fatty acids” (Butamax(TM) Advanced Biofuels LLC, priority 2008, dated 2014).

Assays:
Format in all cases: cell-based, Lactobacillus plantarum
[1] = system: L. plantarum PN0512; test: Growth yield of fatty acid fed cultures in the presence of isobutanol; conditions: for OD600 (growth yield): 20 hours at 30° C., average of two experiments
Description: (§1) Growth medium was semi-synthetic LAB medium, pH7, with bovine serum albumin (BSA) used as a carrier. […] The composition of this medium is as follows:
(§2) All medium ingredients were purchased from Sigma Chemical Company (St. Louis, Mo.) except yeast extract and casamino acids, which were purchased from Beckton, Dickinson and Co (Sparks, Md.). Free fatty acids, added to a final concentration of […] from 1% ethanol stock solutions (stored at −20° C.), were purchased from Sigma Chemical Company (St Louis, Mo.), Isobutanol, 1-butanol, 2-butanol, and methyl ethyl ketone (MEK) were purchased from Sigma Chemical Company (St. Louis, Mo.).
(§3) A working stock of Lactobacillus plantarum PN0512 (ATCC # PTA-7727) was prepared to use as a consistent source of inoculum. Cultures were grown in MRS medium (Acumedia Manufacturers, Inc. Lansing, Mich.) at 30° C. overnight. Glycerol was added to a final concentration of 12.5% and aliquots were frozen at −80° C. One aliquot was thawed at room temperature and used to inoculate all tubes in an experiment and then discarded.
(§4) For growth yield experiments, 5 ml of medium with fatty acids and several concentrations of 1-butanol, isobutanol, 2-butanol, or MEK in 15 ml screw cap tubes was inoculated with 12.5 μl of the working stock giving an initial OD600 of 0.012. The caps were tightly sealed and incubated at 30° C. on a roller drum for 20 to 26 hours, at which time 1.0 ml was removed and OD600 was measured with a blank of medium amended with the fatty acid. All solvent concentrations are reported as % (w/v).
Growth in the presence of these fatty acids and various concentrations of isobutanol was tested. Cultures were prepared as described in General Methods.

[2] = system: L. plantarum PN0512; test: Growth yield of fatty acid fed cultures in the presence of 1-butanol; conditions: for OD600 (growth yield): overnight growth at 30° C., average of biological replicates
Description: as §1, §2, §3, §4
(§5) Cultures were prepared as described in General Methods.

[3] = system: L. plantarum PN0512; test: Growth yield of fatty acid fed cultures in the presence of 2-butanol; conditions: for OD600 (growth yield): overnight growth at 30° C., average of biological replicates
Description: as §1, §2, §3, §4, §5

[4] = system: L. plantarum PN0512; test: Growth yield of fatty acid fed cultures in the presence of MEK; conditions: for OD600 (growth yield): overnight growth at 30° C., average of biological replicates
Description: as §1, §2, §3, §4, §5

| Structure (SMILES) | OD600 (growth yield) ([1]; isobutanol 1.5 % w/v) | OD600 (growth yield) ([1]; isobutanol 2.0 % w/v) | OD600 (growth yield) ([1]; isobutanol 2.5 % w/v) | OD600 (growth yield) ([1]; isobutanol 2.7 % w/v) | OD600 (growth yield) ([1]; isobutanol 2.9 % w/v) | OD600 (growth yield) ([1]; isobutanol 3.1 % w/v) | OD600 (growth yield) ([1]; isobutanol 3.3 % w/v) | OD600 (growth yield) ([1]; isobutanol 3.5 % w/v) | OD600 (growth yield) ([2]; 1-butanol 0 % (w/v)) | OD600 (growth yield) ([2]; 1-butanol 2.0 % (w/v)) | OD600 (growth yield) ([2]; 1-butanol 2.25 % (w/v)) | OD600 (growth yield) ([2]; 1-butanol 2.5 % (w/v)) | OD600 (growth yield) ([2]; 1-butanol 2.75 % (w/v)) | OD600 (growth yield) ([2]; 1-butanol 3.0 % (w/v)) | OD600 (growth yield) ([3]; 2-butanol 0 % w/v) | OD600 (growth yield) ([3]; 2-butanol 2.0 % w/v) | OD600 (growth yield) ([3]; 2-butanol 4.0 % w/v) | OD600 (growth yield) ([3]; 2-butanol 4.5 % w/v) | OD600 (growth yield) ([3]; 2-butanol 4.7 % w/v) | OD600 (growth yield) ([3]; 2-butanol 4.9 % w/v) | also measured |
| --- | --- | --- | --- | --- | --- | --- | --- | --- | --- | --- | --- | --- | --- | --- | --- | --- | --- | --- | --- | --- | --- |
| CCCCCCCC/C=C/CCCCCCCC(=O)O [elaidic acid, (E)-octadec-9-enoic acid] | 1.145 | 1.100 | 0.922 | 0.606 | 0.281 | 0.122 | 0.072 | 0.042 | 1.508 | 1.039 | 1.003 | 0.559 | 0.095 | 0.009 | 1.490 | 1.430 | 1.030 | 0.400 | 0.186 | 0.088 | growth yield higher than in the oleic acid fed cultures ([1]; 2.5% w/v isobutanol): 78%; growth yield compared with the oleic acid fed cultures ([1]; concentrations greater than 2% isobutanol): greater; growth yield higher than in the oleic acid fed cultures ([2]; 2.5% w/v 1-butanol): greater than 3 fold; growth yield compared with the oleic acid fed cultures ([2]; concentrations greater than 2% 1-butanol): greater; tolerance to 2-butanol when compared to the oleic acid fed culture [3]: improved tolerance; OD600 (growth yield) ([3]; 2-butanol 5.1 % w/v): 0.038; OD600 (growth yield) ([3]; 2-butanol 5.3 % w/v): 0.030; OD600 (growth yield) ([3]; 2-butanol 5.5 % w/v): 0.008; growth yield higher than in the oleic acid fed cultures ([3]; 4.5% w/v 2-butanol): 4 fold; tolerance to MEK as compared with oleic acid fed cultures [4]: did not have improved tolerance to MEK; OD600 (growth yield) ([4]; MEK 0 % (w/v)): 1.548; OD600 (growth yield) ([4]; MEK 3.5 % (w/v)): 1.0041; OD600 (growth yield) ([4]; MEK 4.0 % (w/v)): 0.9105; OD600 (growth yield) ([4]; MEK 4.5 % (w/v)): 0.8871; OD600 (growth yield) ([4]; MEK 5.0 % (w/v)): 0.3235; OD600 (growth yield) ([4]; MEK 5.5 % (w/v)): 0.1477 |
| CCCCCCCC/C=C\CCCCCCCC(=O)O [oleic acid, reference compound] | 1.110 | 1.130 | 0.519 | 0.387 | 0.095 | 0.063 | 0.035 | 0.015 | 1.509 | 1.026 | 0.611 | 0.161 | 0.061 | 0.003 | 1.480 | 1.410 | 0.431 | 0.100 | 0.067 | 0.040 | OD600 (growth yield) ([3]; 2-butanol 3.0 % w/v): 1.130; OD600 (growth yield) ([3]; 2-butanol 5.1 % w/v): 0.030; OD600 (growth yield) ([3]; 2-butanol 5.3 % w/v): 0.004; OD600 (growth yield) ([3]; 2-butanol 5.5 % w/v): 0.004; OD600 (growth yield) ([4]; MEK 0 % (w/v)): 1.539; OD600 (growth yield) ([4]; MEK 3.5 % (w/v)): 1.002; OD600 (growth yield) ([4]; MEK 4.0 % (w/v)): 0.9446; OD600 (growth yield) ([4]; MEK 4.5 % (w/v)): 0.942; OD600 (growth yield) ([4]; MEK 5.0 % (w/v)): 0.6828; OD600 (growth yield) ([4]; MEK 5.5 % (w/v)): 0.5004 |
